Experimental data reported in patent publication US20250134890A1, “ANTIMALARIAL HEXAHYDROPYRIMIDINE ANALOGUES” (UCB BIOPHARMA SRL, priority 2022, published 2025).
Counter-ions that a name gives are not always drawn. Like-named read-outs stand apart in the source and are kept apart here.

Tested on: Plasmodium falciparum: 3D7 strain
Experiment: P. falciparum 3D7 asexual blood stage assay (SYBR green readout)
Assay type: cell-based
Details: Plasmodium falciparum, P. falciparum 3D7 in human erythrocytes, 72 h incubation, SYBR green fluorescence
Excerpt: The compounds of the present invention are potent inhibitors of the growth and propagation of the Plasmodium falciparum parasite in human blood.
The assay used to measure the effect of test compounds on a bloodstream stage of Plasmodium falciparum: 3D7 strain employs SYBR green as the readout. This is a dye that binds to double stranded deoxyribonucleic acid (DNA) with a resulting increase in fluorescence, allowing detection of P. falciparum DNA in infected erythrocytes, and thereby providing a measure of parasite growth and propagation.
Erythrocytes (A+blood) were prepared for both parasite culture and assay by washing 4 times with incomplete media (15.9 g RPMI 1640 (25 mM HEPES, L-glutamine), 1 g NaHCO3, 2 g glucose, 400 μL gentacin (500 mg/mL), 2 mL hypoxanthine solution (13.6 g/L in 0.1M NaOH pH 7.3) in 1 litre of media). The cells were centrifuged at 1800 g for 5 minutes, before decanting the supernatant and re-suspending in fresh incomplete media. On the final wash, the cells were re-suspended in complete media (incomplete media with 5 g/L AlbumaxII), and centrifuged at 1800 g for 3 minutes. This cell sediment was treated as 100% haematocrit.
P. falciparum 3D7 was cultured in erythrocytes at 5% haematocrit in complete media at 37° C. (1% O2, 3% CO2, balance N2). Cultures were split on a weekly basis to achieve a 1% parasitaemia in erythrocites at 5% haematocrit in fresh media. Culture media is replaced by fresh media every other day (2 times during the week).
On day 1, test compounds were added to assay plates using Echo dispensing technology ([…] and 20 points titration). 50 nL of each compound dilution was added to 50 μL of culture (5% haematocrit, 0.5% parasitaemia) and incubated for 72 h at 37° C. (1% O2, 3% CO2, balance N2). Final concentrations of test compounds ranged from 50,000 nM to 15 nM, in […].
On day 4, 10 μL SYBR green (Invitrogen S7563 supplied as 10,000×concentrate in DMSO) pre-diluted to 3×concentrate with Lysis buffer (20 mM Tris pH 7.9, 5% EDTA, 0.16% w/v, 1.6% TX100 v/v) was added to the cultures and incubated in the dark, overnight, at room temperature.
On day 5, fluorescent signal was measured using a BioTek plate reader (excitation 485 nm, emission 528 nm). All data were processed using IDBS ActivityBase. Raw data were converted into percent inhibition through linear regression by setting the high inhibition control (mefloquine) as 100% and the no inhibition control (DMSO) as 0%. Quality control criteria for passing plates were as follows: Z′>0.5, S:B>3, % CV(no inhibition control)<15. The formula used to calculate Z′ is: […]
All EC50 curve fitting was undertaken using the following bi-phasic two site dose response using XLfit model 300 (IDBS):
where A=100 minus the top of the upper curve 1 and the bottom of lower curve; B=Hill slope; log(C)=IC50 concentration at lower site; log(D)=IC50 concentration at upper site; x=inhibitor concentration; and y=% inhibition.

IC50 (Erythrocyte, read-out: IC50) [nM]	Structure (SMILES)	IC50 (3D7, Erythrocyte, 72 h) [nM]
–	C[C@H]1C[C@@H](N2C(=N)N[C@](C)(c3cccc(-c4ccc(OC(F)F)nc4)c3Cl)CC2=O)CCS1(=O)=O (relative stereo) [Example 71, (6S)-6-{2-Chloro-3-[6-(difluoro-methoxy)pyridin-3-yl]phenyl}-2-imino-6-methyl-3-[(2S*,4S*)-2-methyl-1,1-dioxothian-4-yl]-hexahydropyrimidin-4-one hydrochloride]	151
913	C[C@@H]1C[C@@H](N2C(=N)N[C@](C)(c3cccc(-c4ccc(OC(F)F)nc4)c3Cl)CC2=O)CCS1(=O)=O (relative stereo) [Example 72, (6S)-6-{2-Chloro-3-[6-(difluoro-methoxy)pyridin-3-yl|phenyl}-2-imino-6-methyl-3-[(2R*,4S*)-2-methyl-1,1-dioxothian-4-yl]-hexahydropyrimidin-4-one hydrochloride]	–
–	C[C@H]1C[C@H](N2C(=N)N[C@](C)(c3cccc(-c4ccc(OC(F)F)nc4)c3Cl)CC2=O)CCS1(=O)=O (relative stereo) [Example 73, (6S)-6-{2-Chloro-3-[6-(difluoro-methoxy)pyridin-3-yl]phenyl}-2-imino-6-methyl-3-[(2S*,4R*)-2-methyl-1,1-dioxothian-4-yl]-hexahydropyrimidin-4-one hydrochloride]	227
–	C[C@@H]1C[C@H](N2C(=N)N[C@](C)(c3cccc(-c4ccc(Cl)cn4)c3Cl)CC2=O)CCS1(=O)=O (relative stereo) [Example 74, (6S)-6-[2-Chloro-3-(5-chloro-pyridin-2-yl)phenyl]-2-imino-6-methyl-3-[(2R*,4R*)-2-methyl-1,1-dioxothian-4-yl]hexahydro-pyrimidin-4-one hydrochloride]	59
–	C[C@H]1C[C@@H](N2C(=N)N[C@](C)(c3cccc(-c4ccc(Cl)cn4)c3Cl)CC2=O)CCS1(=O)=O (relative stereo) [Example 75, (6S)-6-[2-Chloro-3-(5-chloro-pyridin-2-yl)phenyl]-2-imino-6-methyl-3-[(2S*,4S*)-2-methyl-1,1-dioxothian-4-yl]hexahydro-pyrimidin-4-one hydrochloride]	217
–	C[C@H]1C[C@H](N2C(=N)N[C@](C)(c3cccc(-c4ccc(Cl)cn4)c3Cl)CC2=O)CCS1(=O)=O (relative stereo) [Example 76, (6S)-6-[2-Chloro-3-(5-chloro-pyridin-2-yl)phenyl]-2-imino-6-methyl-3-[(2S*,4R*)-2-methyl-1,1-dioxothian-4-yl]hexahydro-pyrimidin-4-one hydrochloride]	2460
–	C[C@@H]1C[C@@H](N2C(=N)N[C@](C)(c3cccc(-c4ccc(Cl)cn4)c3Cl)CC2=O)CCS1(=O)=O (relative stereo) [Example 77, (6S)-6-[2-Chloro-3-(5-chloro-pyridin-2-yl)phenyl]-2-imino-6-methyl-3-[(2R*,4S*)-2-methyl-1,1-dioxothian-4-yl]hexahydro-pyrimidin-4-one hydrochloride]	460
–	C[C@H]1C[C@@H](N2C(=N)N[C@](C)(c3cccc(-c4ccc(OC(F)(F)F)nc4)c3Cl)CC2=O)CCS1(=O)=O (relative stereo) [Example 78, (6S)-6-{2-Chloro-3-[6-(trifluoro-methoxy)pyridin-3-yl]phenyl}-2-imino-6-methyl-3-[(2S*,4S*)-2-methyl-1,1-dioxothian-4-yl]-hexahydropyrimidin-4-one hydrochloride]	365
–	C[C@@H]1C[C@H](N2C(=N)N[C@](C)(c3cccc(-c4ccc(OC(F)(F)F)nc4)c3Cl)CC2=O)CCS1(=O)=O (relative stereo) [Example 79, (6S)-6-{2-Chloro-3-[6-(trifluoro-methoxy)pyridin-3-yl]phenyl}-2-imino-6-methyl-3-[(2R*,4R*)-2-methyl-1,1-dioxothian-4-yl]-hexahydropyrimidin-4-one hydrochloride]	107
–	C[C@H]1C[C@H](N2C(=N)N[C@](C)(c3cccc(-c4ccc(OC(F)(F)F)nc4)c3Cl)CC2=O)CCS1(=O)=O (relative stereo) [Example 80, (6S)-6-{2-Chloro-3-[6-(trifluoro-methoxy)pyridin-3-yl]phenyl}-2-imino-6-methyl-3-[(2S*,4R*)-2-methyl-1,1-dioxothian-4-yl]-hexahydropyrimidin-4-one hydrochloride]	1700
–	C[C@@H]1C[C@@H](N2C(=N)N[C@](C)(c3cccc(-c4ccc(OC(F)(F)F)nc4)c3Cl)CC2=O)CCS1(=O)=O (relative stereo) [Example 81, (6S)-6-{2-Chloro-3-[6-(trifluoro-methoxy)pyridin-3-yl]phenyl}-2-imino-6-methyl-3-[(2R*,4S*)-2-methyl-1,1-dioxothian-4-yl]-hexahydropyrimidin-4-one hydrochloride]	420
–	C[C@H]1C[C@@H](N2C(=N)N[C@](C)(c3cccc(-c4cncc(Cl)c4)c3Cl)CC2=O)CC[C@H]1O (relative stereo) [Example 82, (6S)-6-[2-Chloro-3-(5-chloro-pyridin-3-yl)phenyl]-3-[(1S*,3S*,4R*)-4-hydroxy-3-methylcyclohexyl]-2-imino-6-methylhexahydropyrimidin-4-one hydrochloride]	265
–	C[C@@H]1C[C@H](N2C(=N)N[C@](C)(c3cccc(-c4cncc(Cl)c4)c3Cl)CC2=O)CC[C@@H]1O (relative stereo) [Example 83, (6S)-6-[2-Chloro-3-(5-chloro-pyridin-3-yl)phenyl]-3-[(1R*,3R*,4S*)-4-hydroxy-3-methylcyclohexyl]-2-imino-6-methylhexahydropyrimidin-4-one hydrochloride]	52
–	C[C@@]1(c2cccc(-c3cnn(CC(F)(F)F)c3)c2Cl)CC(=O)N([C@@H]2CCC(F)(F)[C@H](O)C2)C(=N)N1 (relative stereo) [Example 84, (6S)-6-{2-Chloro-3-[1-(2,2,2-trifluoroethyl)pyrazol-4-yl]phenyl}-3-[(1R*,3R*)-4,4-difluoro-3-hydroxycyclohexyl]-2-imino-6-methylhexahydropyrimidin-4-one hydrochloride]	339
–	C[C@@]1(c2cccc(-c3cnn(CC(F)(F)F)c3)c2Cl)CC(=O)N([C@H]2CCC(F)(F)[C@@H](O)C2)C(=N)N1 (relative stereo) [Example 85, (6S)-6-{2-Chloro-3-[1-(2,2,2-trifluoroethyl)pyrazol-4-yl]phenyl}-3-[(1S*,3S*)-4,4-difluoro-3-hydroxycyclohexyl]-2-imino-6-methylhexahydropyrimidin-4-one hydrochloride]	2670
–	C[C@@]1(c2cccc(-c3cc(C4CC4)no3)c2Cl)CC(=O)N([C@@H]2CCC(F)(F)[C@H](O)C2)C(=N)N1 (relative stereo) [Example 86, (6S)-6-[2-Chloro-3-(3-cyclopropyl-isoxazol-5-yl)phenyl]-3-[(1R*,3R*)-4,4-difluoro-3-hydroxy-cyclohexyl]-2-imino-6-methyl-hexahydropyrimidin-4-one hydrochloride]	286
–	C[C@@]1(c2cccc(-c3cc(C4CC4)no3)c2Cl)CC(=O)N([C@H]2CCC(F)(F)[C@@H](O)C2)C(=N)N1 (relative stereo) [Example 87, (6S)-6-[2-Chloro-3-(3-cyclopropyl-isoxazol-5-yl)phenyl]-3-[(1S*,3S*)-4,4-difluoro-3-hydroxycyclohexyl]-2-imino-6-methylhexahydro-pyrimidin-4-one hydrochloride]	2910
–	C[C@@]1(c2cccc(-c3cccc(Cl)c3)c2Cl)CC(=O)N([C@H]2CCOC[C@@H]2O)C(=N)N1 (relative stereo) [Example 95, (6S)-6-[2-Chloro-3-(3-chloro-phenyl)phenyl]-3-[(3R*,4S*)-3-hydroxytetrahydropyran-4-yl]-2-imino-6-methylhexahydro-pyrimidin-4-one hydrochloride]	323
–	C[C@@]1(c2cccc(-c3cccc(Cl)c3)c2Cl)CC(=O)N([C@@H]2CCOC[C@H]2O)C(=N)N1 (relative stereo) [Example 96, (6S)-6-[2-Chloro-3-(3-chloro-phenyl)phenyl]-3-[(3S*,4R*)-3-hydroxytetrahydropyran-4-yl]-2-imino-6-methylhexahydro-pyrimidin-4-one hydrochloride]	1430
